Assay: Absorption maximum of the structures
Assay type: physicochemical
Conditions: Table 1; measured in methanol, or if not soluble in methanol, in ethanol
Method: Absorption maxima of the structures in Tables 1 to 3 are measured in methanol, or if not soluble in methanol, in ethanol.
For `CCCCN(/C=C/C=C(\C(=O)OC)S(=O)(=O)c1ccc(C(C)(C)C)cc1)CCCC` [Structure 1.2i], the Absorption maximum was 373 nm.
Compound `CCCCN(/C=C/C=C1C(=O)CC(C)(C)CC1=O)CCCC` [Structure 1.6r] has an Absorption maximum of 389 nm.
In the case of `CCCCCCN(/C=C/C=C(\C(=O)OCCOc1ccc(C(C)(C)CC)cc1C(C)(C)CC)S(=O)(=O)c1ccc(C)cc1)CCCCCC` [Structure 1.4i], the Absorption maximum was 374 nm.
With `CCCCCCN(/C=C/C=C(\C(C)=O)S(=O)(=O)c1ccccc1)CCCCCC` [Structure 1.8r] the Absorption maximum was 385 nm.
Compound `CCCCN(/C=C/C=C(\C(C)=O)S(=O)(=O)c1ccc(C)cc1)CCCC` [Structure 1.7r] has an Absorption maximum of 385 nm.
`CCCCCCCCCCOC(=O)/C(=C/C=C/N(C)C)C(C)=O` [Structure 1.12r] gave an Absorption maximum of 394 nm.
`CCCCCCN(/C=C/C=C(C(C)=O)C(C)=O)CCCCCC` [Structure 1.13r] gave an Absorption maximum of 395 nm.
Compound `CCCCCCN(/C=C/C=C(C#N)C#N)CCCCCC` [Structure 1.5i] has an Absorption maximum of 378 nm.
`CCCCC(CC)COC(=O)C(=C/C=C/N(C)C)C(=O)OCC(CC)CCCC` (stereo not drawn) [Structure 1.3i] showed an Absorption maximum of 374 nm.
In the case of `CCCCCCN(/C=C/C=C(/C(=O)OCC)S(=O)(=O)c1ccccc1)CCCCCC` [Structure 1.1i], the Absorption maximum was 373 nm.
`CCCCCCN(/C=C/C=C1C(=O)N(C)C(=O)N(C)C1=O)CCCCCC` [Structure 1.10r] gave an Absorption maximum of 388 nm.
`CCCCCCN(/C=C/C=C1C(=O)N(C)N(C)C1=O)CCCCCC` [Structure 1.9r] gave an Absorption maximum of 387 nm.

Same assay, conditions: Table 2; measured in methanol, or if not soluble in methanol, in ethanol
`CC(=O)/C(=C\C=C\N1CCOCC1)S(=O)(=O)c1ccccc1` [Structure 2.2r] showed an Absorption maximum of 383 nm.
In the case of `CCCCCCCCCCOC(=O)/C(=C\C=C\N1CCCCC1)S(=O)(=O)c1ccccc1` [Structure 2.1i], the Absorption maximum was 375 nm.
Work on `CCCCC(CC)COC(=O)C(=CC=CN1CCCCC1)C(C)=O` (stereo not drawn) [Structure 2.3r] yielded an Absorption maximum of 395 nm.

Same assay, conditions: Table 3; measured in methanol, or if not soluble in methanol, in ethanol
In the case of `CCCCCCCCCCN1/C(=C\C=C(\C(=O)OCCCCCC)S(=O)(=O)c2ccc(C)cc2)SCC1C` (stereo not drawn) [Structure 3.8r], the Absorption maximum was 392 nm.
Work on `Cc1ccc(S(=O)(=O)/C(C#N)=C\C=C2\OCC(C)(C)N2C)cc1` [Structure 3.1i] yielded an Absorption maximum of 361 nm.
In the case of `CCCCCCCCCCN1CCC/C1=C/C=C(/C(C)=O)S(=O)(=O)c1ccccc1` [Structure 3.7r], the Absorption maximum was 392 nm.
`CCCCCCOC(=O)/C(=C/C=C1/OCC(C)(C)N1C)S(=O)(=O)c1ccccc1` [Structure 3.2i] showed an Absorption maximum of 362 nm.
For `CCCCCCCCCCN1CCC/C1=C/C=C(/C(=O)OCC)S(=O)(=O)c1ccc(OC)cc1` [Structure 3.6i], the Absorption maximum was 375 nm.
Compound `CCCCCCCCCCCCN1/C(=C\C=C(C#N)C#N)OCC1(C)C` [Structure 3.3i] has an Absorption maximum of 372 nm.
Work on `CCCCCCCCCCN1/C(=C\C=C(\C(C)=O)S(=O)(=O)c2ccccc2)OCC1(C)C` [Structure 3.4i] yielded an Absorption maximum of 373 nm.
For `CCCCCCCCCCCCOC(=O)/C(C#N)=C/C=C1/OCC(C)(C)N1C` [Structure 3.5i], the Absorption maximum was 374 nm.

Assay: Appearance of formulation after application to the transparent substrate
Assay type: physicochemical
Conditions: not given
In the case of `CCCCCCCCCCOC(=O)/C(=C/C=C/N(C)C)C(C)=O` [Structure 1.12r], the “Appearance (colour) of formulation” value was “had a colourless appearance after application to the transparent substrate, except for structure 1.12r”.

Reference: patent publication US20080260661A1, “Aminobutadiene-Based Uv Screens” (Fuji Photo Film B.V., priority 2004, published 2008)
